Read-outs that look alike come from different tables or passages of the source.
Key:
[1] = system: EC1064 (NDM-1, CMY-6, CTX-M-15); type: cell-based, Escherichia coli; conditions: EC1064; alone
Source text: (§1) Several strains simultaneously expressing both class A and class B carbapenemases, which were constructed using conjugation, were also included in the panel.

[2] = system: EC1065 (IMP-1 CMY-2); type: cell-based, Escherichia coli; conditions: EC1065; alone
Source text: as §1

[3] = system: EC1061 (NDM-1, CMY-6); type: cell-based, Escherichia coli; conditions: EC1061; alone
Source text: as §1

[4] = system: EC1068 (VIM-1); type: cell-based, Escherichia coli; conditions: EC1068; alone
Source text: as §1

[5] = system: EA1019 (SHV-5, VIM-1); type: cell-based, Enterobacter aerogenes; conditions: EA1019; alone
Source text: as §1

[6] = system: KP1081 (NDM-1, TEM-1, SHV-11, CMY-6, CTX-M-15); type: cell-based, Klebsiella pneumoniae; conditions: KP1081; alone
Source text: (§2) The results are present in Table 6.
(§3) The results are present in Table 7.

[7] = system: KP1087 (KPC-2, CTX-M-15, SHV-11, TEM-1); type: cell-based, Klebsiella pneumoniae; conditions: KP1087; alone
Source text: as §2, §3

[8] = system: KPM1123 (KPC-2 TEM SHV); type: cell-based, Klebsiella pneumoniae; conditions: KPM1123; alone
Source text: as §1

[9] = system: KP1084 (KPC-3, SHV-11, TEM-1); type: cell-based, Klebsiella pneumoniae; conditions: KP1084; alone
Source text: as §1

[10] = system: KP1064 (KPC TEM SHV); type: cell-based, Klebsiella pneumoniae; conditions: KP1064; alone
Source text: as §1

[11] = system: KP1061 (KPC TEM SHV); type: cell-based, Klebsiella pneumoniae; conditions: KP1061; alone
Source text: as §1

[12] = system: KP1098 (IMP-26 TEM SHV); type: cell-based, Klebsiella pneumoniae; conditions: KP1098; alone
Source text: as §1

[13] = system: KPM1346 (NDM-1 TEM SHV CTX-M-15 CMY); type: cell-based, Klebsiella pneumoniae; conditions: KPM1346; alone
Source text: as §1

[14] = system: KPM1099 (NDM, KPC); type: cell-based, Klebsiella pneumoniae; conditions: KPM1099; alone
Source text: as §1

[15] = system: KP1081 (NDM-1, TEM-1, SHV-11, CMY-6, CTX-M-15); type: cell-based, Klebsiella pneumoniae; conditions: KP1081; alone; remark: listed apart in the source
Source text: as §1

[16] = system: KPM1108 (NDM, KPC); type: cell-based, Klebsiella pneumoniae; conditions: KPM1108; alone
Source text: as §1

[17] = system: KP1054 (VIM-1, SHV-11); type: cell-based, Klebsiella pneumoniae; conditions: KP1054; alone
Source text: as §1

[18] = system: KP1070 (KPC TEM SHV); type: cell-based, Klebsiella pneumoniae; conditions: KP1070; alone
Source text: as §1

[19] = system: KPM1109 (NDM, KPC); type: cell-based, Klebsiella pneumoniae; conditions: KPM1109; alone
Source text: as §1

[20] = system: KPM1345 (VIM-1 SHV); type: cell-based, Klebsiella pneumoniae; conditions: KPM1345; alone
Source text: as §1

[21] = system: KP1065 (VIM-1, SHV-11); type: cell-based, Klebsiella pneumoniae; conditions: KP1065; alone
Source text: as §1

[22] = system: KP1004 (KPC TEM SHV); type: cell-based, Klebsiella pneumoniae; conditions: KP1004; alone
Source text: as §1

[23] = system: KPM1097 (NDM, KPC); type: cell-based, Klebsiella pneumoniae; conditions: KPM1097; alone
Source text: as §1

[24] = system: KPM1110 (NDM, KPC); type: cell-based, Klebsiella pneumoniae; conditions: KPM1110; alone
Source text: as §1

[25] = system: KPM1347 (NDM-1 SHV CTX-M-15); type: cell-based, Klebsiella pneumoniae; conditions: KPM1347; alone
Source text: as §1

[26] = system: KP1097 (IMP-1 SHV); type: cell-based, Klebsiella pneumoniae; conditions: KP1097; alone
Source text: as §1

[27] = system: KPM1111 (NDM, KPC); type: cell-based, Klebsiella pneumoniae; conditions: KPM1111; alone
Source text: as §1

[28] = system: KPM1107 (NDM, KPC); type: cell-based, Klebsiella pneumoniae; conditions: KPM1107; alone
Source text: as §1

[29] = system: KPM1122 (NDM, VIM); type: cell-based, Klebsiella pneumoniae; conditions: KPM1122; alone
Source text: as §1

[30] = system: KP1014 (Vim-1, TEM, SHV); type: cell-based, Klebsiella pneumoniae; conditions: KP1014; alone
Source text: as §1

[31] = system: KPM1344 (VIM-1); type: cell-based, Klebsiella pneumoniae; conditions: KPM1344; alone
Source text: as §1

[32] = system: KP1059 (VIM-1, SHV-11); type: cell-based, Klebsiella pneumoniae; conditions: KP1059; alone
Source text: as §1

[33] = system: ECL1026 (KPC); type: cell-based, Enterobacter cloacae; conditions: ECL1026; alone
Source text: as §1

[34] = system: ECLM1013 (NDM, KPC); type: cell-based, Enterobacter cloacae; conditions: ECLM1013; alone
Source text: as §1

[35] = system: ECLM1019 (VIM, KPC); type: cell-based, Enterobacter cloacae; conditions: ECLM1019; alone
Source text: as §1

[36] = system: ECLM1015 (NDM, KPC); type: cell-based, Enterobacter cloacae; conditions: ECLM1015; alone
Source text: as §1

[37] = system: ECLM1014 (NDM, KPC); type: cell-based, Enterobacter cloacae; conditions: ECLM1014; alone
Source text: as §1

[38] = system: ECL1057 (NDM-1, TEM-1, CTX-M-15); type: cell-based, Enterobacter cloacae; conditions: ECL1057; alone
Source text: as §1

[39] = system: ECL1045 (VIM-1); type: cell-based, Enterobacter cloacae; conditions: ECL1045; alone
Source text: as §1

[40] = system: ECLM1017 (VIM, KPC); type: cell-based, Enterobacter cloacae; conditions: ECLM1017; alone
Source text: as §1

[41] = system: ECLM1016 (NDM, KPC); type: cell-based, Enterobacter cloacae; conditions: ECLM1016; alone
Source text: as §1

[42] = system: ECL1036 (KPC); type: cell-based, Enterobacter cloacae; conditions: ECL1036; alone
Source text: as §1

[43] = system: ECLM1018 (VIM, KPC); type: cell-based, Enterobacter cloacae; conditions: ECLM1018; alone
Source text: as §1

[44] = system: ECL1055 (KPC); type: cell-based, Enterobacter cloacae; conditions: ECL1055; alone
Source text: as §1

[45] = system: ECL1082 (VIM-1); type: cell-based, Enterobacter cloacae; conditions: ECL1082; alone
Source text: as §1

`C[C@@H](O)[C@H]1C(=O)N2C(C(=O)O)=C(S[C@@H]3CN[C@H](C(=O)N(C)C)C3)[C@H](C)[C@H]12` [Meropenem, reference compound] was tested, and the “Carbapenem MIC alone” value [1] was “Z (MIC of greater than 10 μg/mL)”, the “Carbapenem MIC alone” value [2] was “Y (MIC of 1 μg/mL to 10 μg/mL)” and the “Carbapenem MIC alone” value [3] was “Z (MIC of greater than 10 μg/mL)”. The “Carbapenem MIC alone” value [4] was “Z (MIC of greater than 10 μg/mL)”, the “Carbapenem MIC alone” value [5] was “Z (MIC of greater than 10 μg/mL)” and the “Carbapenem MIC alone” value [6] was “Z (MIC of greater than 10 μg/mL)”. For the same compound, the “Carbapenem MIC alone” value [7] was “Z (MIC of greater than 10 μg/mL)”, the “Carbapenem MIC alone” value [8] was “Z (MIC of greater than 10 μg/mL)” and the “Carbapenem MIC alone” value [9] was “Z (MIC of greater than 10 μg/mL)”. For the same compound, the “Carbapenem MIC alone” value [10] was “Z (MIC of greater than 10 μg/mL)”, the “Carbapenem MIC alone” value [11] was “Y (MIC of 1 μg/mL to 10 μg/mL)” and the “Carbapenem MIC alone” value [12] was “Z (MIC of greater than 10 μg/mL)”. The “Carbapenem MIC alone” value [13] was “Z (MIC of greater than 10 μg/mL)”, the “Carbapenem MIC alone” value [14] was “Z (MIC of greater than 10 μg/mL)” and the “Carbapenem MIC alone” value [15] was “Z (MIC of greater than 10 μg/mL)”. The “Carbapenem MIC alone” value [16] was “Z (MIC of greater than 10 μg/mL)”, the “Carbapenem MIC alone” value [17] was “Z (MIC of greater than 10 μg/mL)” and the “Carbapenem MIC alone” value [18] was “Z (MIC of greater than 10 μg/mL)”. For the same compound, the “Carbapenem MIC alone” value [19] was “Z (MIC of greater than 10 μg/mL)”, the “Carbapenem MIC alone” value [20] was “Y (MIC of 1 μg/mL to 10 μg/mL)” and the “Carbapenem MIC alone” value [21] was “Y (MIC of 1 μg/mL to 10 μg/mL)”. For the same compound, the “Carbapenem MIC alone” value [22] was “Z (MIC of greater than 10 μg/mL)”, the “Carbapenem MIC alone” value [23] was “Z (MIC of greater than 10 μg/mL)” and the “Carbapenem MIC alone” value [24] was “Z (MIC of greater than 10 μg/mL)”. For the same compound, the “Carbapenem MIC alone” value [25] was “Z (MIC of greater than 10 μg/mL)”, the “Carbapenem MIC alone” value [26] was “Z (MIC of greater than 10 μg/mL)” and the “Carbapenem MIC alone” value [27] was “Z (MIC of greater than 10 μg/mL)”. For the same compound, the “Carbapenem MIC alone” value [28] was “Z (MIC of greater than 10 μg/mL)”, the “Carbapenem MIC alone” value [29] was “Z (MIC of greater than 10 μg/mL)” and the “Carbapenem MIC alone” value [30] was “Z (MIC of greater than 10 μg/mL)”. The “Carbapenem MIC alone” value [31] was “Z (MIC of greater than 10 μg/mL)”, the “Carbapenem MIC alone” value [32] was “Z (MIC of greater than 10 μg/mL)” and the “Carbapenem MIC alone” value [33] was “Y (MIC of 1 μg/mL to 10 μg/mL)”. The “Carbapenem MIC alone” value [34] was “Z (MIC of greater than 10 μg/mL)”, the “Carbapenem MIC alone” value [35] was “Z (MIC of greater than 10 μg/mL)” and the “Carbapenem MIC alone” value [36] was “Z (MIC of greater than 10 μg/mL)”. For the same compound, the “Carbapenem MIC alone” value [37] was “Z (MIC of greater than 10 μg/mL)”, the “Carbapenem MIC alone” value [38] was “Z (MIC of greater than 10 μg/mL)” and the “Carbapenem MIC alone” value [39] was “Y (MIC of 1 μg/mL to 10 μg/mL)”. The “Carbapenem MIC alone” value [40] was “Z (MIC of greater than 10 μg/mL)”, the “Carbapenem MIC alone” value [41] was “Z (MIC of greater than 10 μg/mL)” and the “Carbapenem MIC alone” value [42] was “Y (MIC of 1 μg/mL to 10 μg/mL)”. The “Carbapenem MIC alone” value [43] was “Z (MIC of greater than 10 μg/mL)”, the “Carbapenem MIC alone” value [44] was “Y (MIC of 1 μg/mL to 10 μg/mL)” and the “Carbapenem MIC alone” value [45] was “Y (MIC of 1 μg/mL to 10 μg/mL)”.

Reference: patent US9132140B2, “Boronic acid derivatives and therapeutic uses thereof” (Rempex Pharmaceuticals, Inc., priority 2013, dated 2015)
